Source: patent publication US20050266515A1, “Glyceraldehyde 3-phosphate dehydrogenase-S (GAPDHS), a glycolytic anzyme expressed only in male germ cells, is a target for male contraception” (The University of North Carolina at Chapel Hill, priority 2002, published 2005)
Like-named read-outs stand apart in the source and are kept apart here.

Legend:
Type in all cases: biochemical
[1] = target: T1, truncated form of human GAPDHS (Mus musculus, UniProt Q64467); assay: Inhibition of dehydrogenase activity of recombinant truncated GAPDHS (NADH accumulation at 340 nm);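 further: recombinant enzyme (1 µg) in glycine–phosphate–EDTA buffer pH 8.9, inhibitors tested from 1 µM to 3 mM, activity relative to DMSO-only controls taken as 100%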
T1 construct: tGapdhs, amino acids 106-438; made in house; host or cells: E. coli K-12 strain DS112 (gapA-deficient)

recombinant human GAPDH = target: T2, recombinant human GAPDH (Mus musculus, UniProt P16858); assay: Inhibition of dehydrogenase activity of recombinant somatic GAPDH (NADH accumulation at 340 nm); details: 1 hour preincubation at 4° C., 0.5 mM NAD, 0.5 mM glyceraldehyde-3-phosphate
T2 construct: made in house; host or cells: E. coli K-12 strain DS112 (gapA-deficient)
Source text: In subsequent studies to test inhibitors identified in computer docking studies, recombinant mouse Gapdh and the truncated form of Gapdhs (tGapdhs, amino acids 106-438) were expressed in DS112 gapA-deficient E. coli strain K-12 (available from the Yale University E. coli Genetics Stock Center, New Haven, Conn., United States of America). The truncated Gapdhs lacks the proline-rich N-terminus, but contains all the amino acids required for enzyme activity. The recombinant proteins were purified and activities were determined with a standard enzyme assay (Schmalhausen et al., 1997). Using this assay, the dehydrogenase activity of Gapdh and tGapdhs was monitored at 340 nm by measuring the accumulation of NADH.
The reaction mixture (200 μl) contained 50 mM glycine, 50 mM potassium phosphate, 5 mM EDTA (pH 8.9), 1 μg of recombinant enzyme (Gapdh or tGapdhs), 0.5 mM NAD, and 0.5 mM glyceraldehyde-3-phosphate. Activities of Gapdh and tGapdh were compared in the presence of various concentrations of inhibitors. Compounds identified as potential inhibitors in modeling studies as described herein were obtained from Ryan Scientific (Mt. Pleasant, S.C., United States of America). Stocks for each compound were prepared by dissolving 5 mg in 50 μl of DMSO. These stocks were divided into 10 μl aliquots and frozen at −20° C.
To monitor inhibition, each compound (1 μM to 3 mM) was added to the above reaction mixture (without NAD and glyceraldehyde-3-phosphate) and incubated for 1 hour at 4° C. After the 1 hour incubation period, NAD and glyceraldehyde-3-phosphate were added to start the reaction. In each assay, controls containing equal amounts of DMSO were included to determine values for 100% activity. The IC50 for each compound was calculated as the concentration required to reduce dehydrogenase activity to 50% of the activity of control samples.

[2] = test system: truncated form of human GAPDHS; assay: Inhibition of dehydrogenase activity of recombinant truncated GAPDHS (NADH accumulation at 340 nm); details: comparison of IC50 values of Tables 7, 9 and 11;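 further: recombinant enzyme (1 µg) in glycine–phosphate–EDTA buffer pH 8.9, inhibitors tested from 1 µM to 3 mM, activity relative to DMSO-only controls taken as 100%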
Recombinant mouse Gapdh = target: T3, Recombinant mouse Gapdh (Mus musculus, UniProt P16858); assay: Inhibition of recombinant Gapdh by adenine nucleotides (NAD reduction at 340 nm, 96-well format); details: for inhibition of Gapdhs (the other recombinant enzyme beside tGapdhs): result in words
T3 construct: GST (cleaved yes); made in house

[3] = target: T4, truncated Gapdhs (tGapdhs; amino acids 106-438 of mouse Gapdhs) (Mus musculus, UniProt Q64467); assay: Inhibition of recombinant tGapdhs by adenine nucleotides (NAD reduction at 340 nm, 96-well format); details: for inhibition of tGapdhs: recombinant enzyme, result in words
T4 construct: containing amino acids 106-438 of mouse Gapdhs; GST (cleaved yes); made in house

[4] = Table 9, 1 hour preincubation at 4° C., 0.5 mM NAD, 0.5 mM glyceraldehyde-3-phosphate, read-out: IC50 GAPDHS
[5] = competitive inhibitors of NAD cofactor binding, read-out: calculated Ki for Gapdh
[6] = competitive inhibitors of NAD cofactor binding, read-out: calculated Ki for tGapdhs
[7] = Table 7, 1 hour preincubation at 4° C., 0.5 mM NAD, 0.5 mM glyceraldehyde-3-phosphate, read-out: IC50 GAPDHS
[8] = Table 11, 1 hour preincubation at 4° C., 0.5 mM NAD, 0.5 mM glyceraldehyde-3-phosphate, read-out: IC50 GAPDHS

T1 sequence (Q64467 108-440): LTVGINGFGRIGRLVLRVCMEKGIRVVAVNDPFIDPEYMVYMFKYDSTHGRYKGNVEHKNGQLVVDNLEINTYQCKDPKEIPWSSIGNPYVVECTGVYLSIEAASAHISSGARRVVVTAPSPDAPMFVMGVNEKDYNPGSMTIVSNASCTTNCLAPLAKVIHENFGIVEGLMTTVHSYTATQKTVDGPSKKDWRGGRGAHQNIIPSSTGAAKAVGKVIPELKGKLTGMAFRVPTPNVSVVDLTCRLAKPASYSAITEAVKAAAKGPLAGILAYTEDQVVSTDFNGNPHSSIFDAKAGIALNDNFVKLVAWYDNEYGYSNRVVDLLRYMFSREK
T4 sequence (Q64467 108-440): as above
T3 sequence (P16858 whole entry): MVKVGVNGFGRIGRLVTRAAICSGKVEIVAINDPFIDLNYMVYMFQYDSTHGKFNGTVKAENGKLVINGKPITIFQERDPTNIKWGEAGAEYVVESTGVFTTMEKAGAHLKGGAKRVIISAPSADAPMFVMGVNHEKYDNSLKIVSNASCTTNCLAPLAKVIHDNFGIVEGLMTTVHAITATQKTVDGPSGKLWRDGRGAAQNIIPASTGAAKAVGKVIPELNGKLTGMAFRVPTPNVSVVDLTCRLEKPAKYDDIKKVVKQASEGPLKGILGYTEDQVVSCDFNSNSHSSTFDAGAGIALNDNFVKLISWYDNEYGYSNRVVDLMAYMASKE
T2 sequence (P16858 whole entry): as above

“3-(1H-Imidazolo-4-yl)-2-[3-(4-sulfamoyl-benzyl)-thioureido]-propionic acid [LT_00729760]” was tested, and the IC50 [1, 4] was 2000 µM.

With “4-(1-Benzyl-IH-indol-3y1)-3,4-dihydro-benzo[4,5]imidazo[1,2-a][1,3,5]triazin-2-ylamine [Compound T0501_7933]” the IC50 (recombinant human GAPDH; Table 9) was > 500 µM, the “selective inhibition: Gapdhs compared to Gapdh” value (from here on “selective inhibition: Gapdhs”) [2] was “greater inhibition of Gapdhs than Gapdh” and the IC50 [1, 4] was 10 to 25 µM.

In the case of “4-Amino-N-(4-methoxy-phenyl)-3-nitro-benzenesulfonamide-cyclohexyl-urea [Compound T0506_9350]”, the IC50 (recombinant human GAPDH; Table 9) is reported as > 1000 µM.

Nc1ncnc2c1ncn2[C@@H]1O[C@H](COP(=O)(O)OP(=O)(O)O)[C@@H](O)[C@H]1O [ADP] was tested, and the Ki (Recombinant mouse Gapdh; [5]) was 1790 µM, the “inhibition of Gapdhs (the other recombinant enzyme beside tGapdhs)” value (shortened to “inhibition of Gapdhs”) (Recombinant mouse Gapdh) was “dose-dependent inhibition” and the Ki [3, 6] was 3970 µM. The “inhibition of tGapdhs” value [3] was “dose-dependent inhibition”.

For Nc1ncnc2c1ncn2[C@@H]1O[C@H](COP(=O)(O)O)[C@@H](O)[C@H]1O [AMP], the Ki (Recombinant mouse Gapdh; [5]) was 1610 µM, the “inhibition of Gapdhs” value (Recombinant mouse Gapdh) was “dose-dependent inhibition” and the Ki [3, 6] was 3130 µM. For the same molecule, the “inhibition of tGapdhs” value [3] was “dose-dependent inhibition”.

Nc1ncnc2c1ncn2[C@@H]1O[C@H](COP(=O)(O)OP(=O)(O)OP(=O)(O)O)[C@@H](O)[C@H]1O [ATP, adenosine triphosphate] was tested, and the Ki (Recombinant mouse Gapdh; [5]) was 1270 µM, the “inhibition of Gapdhs” value (Recombinant mouse Gapdh) was “dose-dependent inhibition” and the Ki [3, 6] was 6480 µM.

With Clc1ccc(N=c2ssnc2Cl)c(Cl)c1 [Compound 11K_064, 2,4-dichloro-N-(4chloro-5H-1,2,3-dithiazol-5-yliden)aniline] the IC50 (recombinant human GAPDH; Table 7) was 100 µM and the IC50 [1, 7] was 500 µM.

For Cc1ccc(S(=O)(=O)c2c(N)n(CC(O)c3ccc([N+](=O)[O-])cc3)c3nc4ccccc4nc23)cc1 (stereo not drawn) [Compound T0501_7749, 2-[2-Amino-3-(toluene-4-sulfonyl)-pyrrolo[2,3-b]quinoxalin-1-yl]-1-(4-nitro-phenyl)-ethanol], the IC50 (recombinant human GAPDH; Table 7) was > 1000 µM, the “selective inhibition: Gapdhs” value [2] was “greater inhibition of Gapdhs than Gapdh” and the IC50 [1, 7] was 100 µM.

For OCc1nc2ccccc2[nH]1 [Compound T0504_1251, (1H-Benzoimidazol-2-yl)-methanol], the IC50 [1, 7] was > 3000 µM.

For O=C(NNc1ccc(S(=O)(=O)Nc2ccccc2)cc1[N+](=O)[O-])Nc1cccc(C(F)(F)F)c1 [Compound T0506_1274, 2-[4-(anilinosulfonyl)-2-nitrophenyl]-N-[3-(trifluoromethyl)phenyl]hydrazinecarboxamide], the IC50 [1, 4] was 1750 µM.

C=Cn1cncc1C(=O)C(F)(F)F [Compound T0507_5482, 2,2,2-Trifluoro-1-(3vinyl-3H-imidazol-4-yl)-ethanone] was tested, and the IC50 (recombinant human GAPDH; Table 7) was > 1000 µM and the IC50 [1, 7] was > 1000 µM.

O=C(COC(=O)CCc1c[nH]c2ccccc12)Nc1ccc(S(=O)(=O)N2CCOCC2)cc1 [Compound T0511_4909, 3-(1H-Indol-3-yl)-propionic acid [4-(morpholine-4-sulfonyl)-phenylcaramoyl]-methyl ester] was tested, and the IC50 (recombinant human GAPDH; Table 7) was > 1000 µM, the “selective inhibition: Gapdhs” value [2] was “greater inhibition of Gapdhs than Gapdh” and the IC50 [1, 7] was 500 µM.

With CNc1cc([N+](=O)[O-])ccc1OC [Compound T0512_4753, (2-Methoxy-5-nitro-phenyl)-methyl-amine] the IC50 (recombinant human GAPDH; Table 11) was > 1000 µM and the IC50 [1, 8] was > 1000 µM.

O=[N+]([O-])c1ccc2oc3ccccc3c2c1 [Compound T0515_4928, 2-Nitro-dibenzofuran] was tested, and the “selective inhibition: Gapdhs” value [2] was “greater inhibition of Gapdhs than Gapdh” and the IC50 [1, 8] was 100 µM.

In the case of CCOC(=O)Cc1nnc2c(Nc3ccc(OC)cc3)nc3nonc3n12 [LT00105955, [5-(4-Methoxy-phenylamino)-2-oxa-1,3,4,6,7,8a-hexaaza-as-indacen-8-yl]-acetic acid ethyl ester], the IC50 (recombinant human GAPDH; Table 9) is reported as > 1000 µM and the IC50 [1, 4] is reported as > 1000 µM.

With C=CC(=O)NCNC(=O)C=C [LT_00050115, N-(Acryloylamino-methyl)-acrylamide] the IC50 (recombinant human GAPDH; Table 11) was > 1000 µM and the IC50 [1] was > 1000 µM.

In the case of CN(C)c1ccc(C(CC(=O)c2c(O)c3ccccc3n(C)c2=O)NCc2ccncc2)cc1 (stereo not drawn) [LT_00232244, 3-{3-(4-Dimethylamino-phenyl)-3-[(pyridine-4-ylmethyl)-amino]-propionyl}-4-hydroxy-1-methyl-1H-quinolin-2-one], the IC50 (recombinant human GAPDH; Table 7) is reported as 350 µM and the IC50 [1, 7] is reported as > 1000 µM.

With Nc1nonc1-c1nc2ccccc2n1CC(=O)N/N=C\c1cc2c(cc1[N+](=O)[O-])OCO2 [LT_00237350, [2-(4-Aminofurazan-3-yl)-benzoimidazol-1-yl]-acetic acid [1-(6-nitro-benzo[1,3]dioxol-5-yl)-meth-(Z)ylidene]-hydrazide] the IC50 [1, 4] was 2000 µM.

With CC1=NN(C(N)=N[N+](=O)[O-])C(=O)C1 [LT_00249157, 3-methyl-5-oxo-pyrazole-1-nitro-carboxamidine] the “selective inhibition: Gapdhs” value [2] was “greater inhibition of Gapdhs than Gapdh” and the IC50 [1, 7] was 100 µM.

In the case of O=C(CN1C(=O)c2ccccc2C1=O)Nc1cc(C(=O)O)cc(C(=O)O)c1 [LT_00379844, 5-[2-(1,3-Dioxo-1,3-dihydro-isoindol-2-yl)-acetylamino]-isophthalic acid], the IC50 [1, 4] is reported as > 1000 µM.

In the case of COc1cc(C=NNC(=O)Cn2cnc3c(=O)n(C)c(=O)n(C)c32)cc([N+](=O)[O-])c1O [LT_00444480, (1,3-Dimethyl-2,6-dioxo-1,2,3,6-tetrahydro-purin-9-yl)-acetic acid (4-hydroxy-3-methoxy-5-nitro-benzylidene)-hydrazide], the IC50 (recombinant human GAPDH; Table 9) is reported as 150 µM and the IC50 [1, 4] is reported as 150 µM.

For CC(CC(=O)Nc1ccc(Cl)c(Cl)c1)=NNC(=O)c1cc2ccccc2cc1O [LT_00587256, N-(3,4-Dichloro-phenyl)-3-[(3-hydroxy-naphthalene-2-carbonyl)-hyrazono]-butyramide], the IC50 [1, 4] was 5000 µM.

With COc1cc(C=NNc2ccc([N+](=O)[O-])cc2[N+](=O)[O-])ccc1OCC(=O)Nc1ccc(C)c(C)c1 [LT_01178124, N-(3,4-Dimethyl-phenyl)-2-{4-[(2,4-dinitro-phenyl)-hydrazonomethyl]-2-methoxy}-acetamide] the “IC50 GAPDHS” value ([1]; Table 9, 1 hour preincubation at 4° C., 0.5 mM NAD, 0.5 mM glyceraldehyde-3-phosphate) was “not soluble”.

With O=c1ccn([C@@H]2O[C@H](COP(=O)(O)OP(=O)(O)OP(=O)(O)O)[C@@H](O)[C@H]2O)c(=O)[nH]1 [UTP] the “inhibition of Gapdhs” value (Recombinant mouse Gapdh) was “did not inhibit” and the “inhibition of tGapdhs” value [3] was “did not inhibit”.

In the case of Nc1ncnc2c1ncn2[C@@H]1O[C@H](CO)[C@@H](O)[C@H]1O [adenosine], the “inhibition of Gapdhs” value (Recombinant mouse Gapdh) is reported as “did not inhibit” and the “inhibition of tGapdhs” value [3] is reported as “did not inhibit”.

With Nc1ncnc2c1ncn2[C@@H]1O[C@@H]2COP(=O)(O)O[C@H]2[C@H]1O [cAMP, cyclic AMP] the Ki (Recombinant mouse Gapdh) was 1500 µM, the “inhibition of Gapdhs” value (Recombinant mouse Gapdh) was “dose-dependent inhibition” and the Ki [3] was 3330 µM. The “inhibition of tGapdhs” value [3] was “dose-dependent inhibition”.
